In patent US20150208661A1, “METHOD FOR PREPARING BROMINE BASED BIOCIDAL AQUEOUS COMPOSITIONS” (BROMINE COMPOUNDS LTD., priority 2012, published 2015):

Experiments:
[1] = system: Pseudomonas aeruginosa (ATCC 15442); assay: Biocidal activity against simulated biofilm system (alginate beads with entrapped bacteria); assay type: cell-based; conditions: pH 8
Source text: A biofilm simulation system, alginate beads, developed by the Biofilm Bozeman Institute Montana (Grobe, K. J, Zahller, J and Stewart P. S., 2002 in “Role of dose concentration in biocide efficacy against Pseudomonas aeruginosa Biofilms”, J. Industrial Microbiology & Biotechnology, vol. 29, pp 10-15), was used in order to evaluate the efficacy of the biocide solution against biofilm.
The biofilm simulation was created by entrapping bacteria in alginate gel beads. A plate of R2A agar was streaked with Pseudomonas aeruginosa (ATCC 15442) and incubated at 35° C. overnight. Buffer phosphate at pH 7.2 was used to scrap off the bacteria from the agar plate and to create a suspension. The bacterial suspension was mixed with an equal volume of an aqueous 4% sodium alginate solution, to make a final 2% alginate solution. The alginate and bacterial slurry were placed in a 50 ml syringe attached to a gauge needle, connected to a compressed air tank, allowing the syringe to be pressurized. At 20 psig pressure a stream of small drops was forced out and dropped into a stirred solution of 50 mM CaCl2. The Ca^+2 cross linked the alginate, and semi solid beads with entrapped bacterial cells were formed. The beads were allowed to stir in the CaCl2 solution for about 20 minutes, and then rinsed in a dilute 5 mM CaCl2 solution. Several flasks containing 100 beads each were incubated overnight at 35° C. on a rotating shaker in a buffer solution (at pH 8) with 5 mM addition of CaCl2 to maintain the beads structure. The resulting beads diameter was about 2 mm.
At the beginning of the experiment, the supernatant of the beads buffer suspension containing 5 mM CaCl2 was decanted and replaced by the 100 ml biocide solution with the required concentration (at pH 8). After different interval contact times, 10 beads were removed and placed in a 5 g/l sodium thiosulfate solution containing 50 mM sodium citrate. The sodium citrate was used to dissolve the alginate gel and release the bacteria into the solution. The neutralizer-citrate solution was placed in the refrigerator for 2 hours, than diluted and placed on R2A agar plates using pour plate technique. The plates were incubated at 35° C. for 24-48 hours and counted. The efficacy and toxicity of the neutralizer were checked as well as a control experiment without biocide addition. Four concentrations of active chlorine (0.5, 1, 2.5 and 5 ppm) were tested at four different contact times (5, 15, 30, and 60 min). Table 1-2 describe the surviving colony forming units (CFU) of the bacteria after different biocides treatment at different contact times.

[2] = system: Inoculum of bacteria (activated sludge taken from domestic waste water treatment plant in Haifa); assay: Biocidal efficacy under different TOC loading; assay type: cell-based; conditions: 30 min, pH 7
Experimental: Inoculum of bacteria (activated sludge taken from domestic waste water treatment plant in Haifa), R2A agar for general counting, and Tryptone were employed. The biocidal efficacy of the antifouling composition at different organic loads of 0, 10, 30 and 50 ppm TOC, was examined under different biocidal concentrations (5 and 10 ppm) at pH 7.
1) 1 ml of inoculum with the appropriate biocide concentration (5, 10 ppm) was added to tryptone solutions, 100 ml each, with different concentrations of TOC (0, 10, 30 and 50 ppm). […] The result stands for the bacteria count at zero time. 3) After 30 min. of shaking (100 rpm), 1 ml of each sample was transferred to a tube filled with 9 ml of the neutralization solution […].
An aliquot of 1 ml was taken from this solution and added to another tube containing 9 ml of buffer solution. The solution was mixed under vortex. This operation was repeated for 4 more times.
4) 1 ml from the two lowest dilutions was inoculated on a R2A agar (by the pour plate method). 5) After the plates were incubated at 25° C. for 5-7 days, the bacteria count was recorded.

OCl [NaOCl, sodium hypochlorite]
survival of bacteria (CFU) ([1]; biocide 0.5 ppm as Cl2, contact time 0 min): 1.20E+07 CFU
survival of bacteria (CFU) ([1]; biocide 0.5 ppm as Cl2, contact time 5 min): 6.73E+06 CFU
survival of bacteria (CFU) ([1]; biocide 0.5 ppm as Cl2, contact time 15 min): 6.48E+06 CFU
survival of bacteria (CFU) ([1]; biocide 0.5 ppm as Cl2, contact time 30 min): 6.53E+06 CFU
survival of bacteria (CFU) ([1]; biocide 0.5 ppm as Cl2, contact time 60 min): 4.08E+06 CFU
survival of bacteria (CFU) ([1]; biocide 1 ppm as Cl2, contact time 0 min): 1.20E+07 CFU
survival of bacteria (CFU) ([1]; biocide 1 ppm as Cl2, contact time 5 min): 7.25E+06 CFU
survival of bacteria (CFU) ([1]; biocide 1 ppm as Cl2, contact time 15 min): 4.18E+06 CFU
survival of bacteria (CFU) ([1]; biocide 1 ppm as Cl2, contact time 30 min): 4.28E+06 CFU
survival of bacteria (CFU) ([1]; biocide 1 ppm as Cl2, contact time 60 min): 1.81E+06 CFU
survival of bacteria (CFU) ([1]; biocide 2.5 ppm as Cl2, contact time 0 min): 1.20E+07 CFU
survival of bacteria (CFU) ([1]; biocide 2.5 ppm as Cl2, contact time 5 min): 6.40E+06 CFU
survival of bacteria (CFU) ([1]; biocide 2.5 ppm as Cl2, contact time 15 min): 3.10E+06 CFU
survival of bacteria (CFU) ([1]; biocide 2.5 ppm as Cl2, contact time 30 min): 8.28E+05 CFU
survival of bacteria (CFU) ([1]; biocide 2.5 ppm as Cl2, contact time 60 min): 9.38E+04 CFU
survival of bacteria (CFU) ([1]; biocide 5 ppm as Cl2, contact time 0 min): 1.20E+07 CFU
survival of bacteria (CFU) ([1]; biocide 5 ppm as Cl2, contact time 5 min): 4.55E+06 CFU
survival of bacteria (CFU) ([1]; biocide 5 ppm as Cl2, contact time 15 min): 7.03E+05 CFU
survival of bacteria (CFU) ([1]; biocide 5 ppm as Cl2, contact time 30 min): 2.70E+03 CFU
survival of bacteria (CFU) ([1]; biocide 5 ppm as Cl2, contact time 60 min): 1.00 CFU
% kill ([2]; biocide 5 ppm, TOC 0 ppm): 96.9%
% kill ([2]; biocide 5 ppm, TOC 10 ppm): 86.0%
% kill ([2]; biocide 5 ppm, TOC 30 ppm): 30.6%
% kill ([2]; biocide 5 ppm, TOC 50 ppm): 30.6%
% kill ([2]; biocide 10 ppm, TOC 0 ppm): 99.9%
% kill ([2]; biocide 10 ppm, TOC 10 ppm): 98.8%
% kill ([2]; biocide 10 ppm, TOC 30 ppm): 95.4%
% kill ([2]; biocide 10 ppm, TOC 50 ppm): 88.3%
